Measurements: publication PMC10892142, “Synthesis and In Vitro Antitumor Activity Evaluation of Gefitinib-1,2,3-Triazole Derivatives” (Molecules, 2024)

Key:
H1299 cells [1] = assay: DAPI staining for cell apoptosis; assay type: cell-based, human; conditions: H1299, 2, 4 and 8 μM, 48 h
Procedure: H1299 (1.5 × 10^4–2 × 10^4/well) cells were seeded in 24-well plates for 24 h and then treated with 4b or 4c at the concentrations of 2, 4 and 8 μM for 48 h. The cells were fixed for 30 min at room temperature in 4% paraformaldehyde and washed three times in PBS. Finally, every well was stained with DAPI (10 μg/mL) at room temperature for 30 min and washed at least three times in PBS. The fluorescence microscope was used to observe the morphological changes of cell nuclei.

L02 cells = assay: CCK-8 assay, normal hepatic cells L02; assay type: cell-based; conditions: Homo sapiens; for inhibition at 2 µM / inhibition at 4 µM / inhibition at 8 µM / inhibition at 16 µM / inhibition at 32 µM: L02, 48 h, L02 cells, read-out: Inhibition Rate %, 48 h; for IC50: normal hepatic cells L02, CCK-8, 48 h, mean ± SD, n = 3
Procedure: NCI-H1299, NCI-H1437 and L02 cells were cultured in a humidified incubator (Thermo Scientific™ Forma™ Direct Heat CO2 Incubator, Waltham, MA, USA) at 37 °C with 5% CO2 in RPMI-1640 supplemented with 10% fetal bovine serum (FBS) and 1% Penicillin Streptomycin. A549 cells were cultured in a humidified incubator at 37 °C with 5% CO2 in Ham’s F-12K supplemented with 10% FBS and 1% Penicillin Streptomycin.
(§1) Three types of lung cells and L02 cells were seeded into 96-well plate at a density of 5 × 10^3 cells per well in the logarithmic growth phase and cultured at 37 °C. The cells were then treated initially with different concentrations of compounds 4a–4n (0, 2, 4, 8, 16 and 32 μM) for an additional 48 h, with three replicate wells each. Next, cell viability was determined according to the instructions of the CCK-8 assay. Then, 10 μL CCK-8 solution was added to each well of the plate and incubated for 1–4 h in the incubator. The absorbance was measured at 450 nm using a microplate reader (Bio-Tek, Winooski, VT, USA). The percentage of viable cells was measured using the following formula where three independent experiments were performed: [(A450sample − A450blank)/(A450control − A450blank)] × 100%.

NCI-H1437 cells = assay: CCK-8 assay, NCI-H1437 cells; assay type: cell-based; conditions: Homo sapiens, NCI-H1437; CCK-8, 48 h, mean ± SD, n = 3
Procedure: (§2) Next, cell viability was determined according to the instructions of the CCK-8 assay. Then, 10 μL CCK-8 solution was added to each well of the plate and incubated for 1–4 h in the incubator. […] The percentage of viable cells was measured using the following formula where three independent experiments were performed: [(A450sample − A450blank)/(A450control − A450blank)] × 100%.

MMP9 = assay: Western blot, MMP9 in H1299 cells; assay type: cell-based, human; conditions: H1299, with increasing drug concentration
Procedure: (§3) Firstly, H1299 cells were treated with the different concentrations of 4b and 4c at 4, 8 and 16 μM for 48 h. Then, cells were harvested using RIPA lysate (R0010, Solarbio, Beijing, China) and centrifuged at 12,000× g rpm for 15 min at 4 °C. Following that, the concentration of total protein was measured and taken from the supernatant. Protein was separated by 12% SDS-polyacrylamide gel electrophoresis and transferred to nitrocellulose filter membrane. After blocking in 5% milk for 2 h, the membranes were incubated with a specific primary antibody at 4 °C overnight. The next day, NC membranes were incubated for 1 h at room temperature with appropriate secondary antibodies and then protein bands were visualizing by chemiluminescence detection (ECL kit, Genview, Beijing, China).

NCI-H1299 cells = assay: CCK-8 assay, NCI-H1299 cells; assay type: cell-based, human; conditions: Homo sapiens, NCI-H1299; CCK-8, 48 h, mean ± SD, n = 3
Procedure: as §2

H1299 cells [2] = assay: Transwell migration assay; assay type: cell-based, human; conditions: H1299, 2, 4 and 8 μM, 24 h, vs normal control
Procedure: Transwell assay was used to determine the migration ability of H1299 cells. Cells were starved in serum-free RPMI 1640 medium for 24 h, then detached and resuspended in serum-free RPMI 1640 medium. 5 × 10^5 cells/mL were inoculated into the upper chamber of a 24-well Transwell plate (Corning Inc., Corning, NY, USA), with a volume of 100 μL per well. Then, 100 μL serum-free medium containing 4b or 4c (2, 4 and 8 μM) was added to the upper chamber and the lower chamber was filled with 700 μL medium containing 20% FBS. After incubation for 24 h, H1299 cells on the upper membrane of the transwell were wiped off. The migrated cells were treated with 4% paraformaldehyde for 20 min, stained with 0.1% crystal violet for 20 min and washed three times with PBS. The number of H1299 cells that migrated to the underside of the membrane was counted under the inverted fluorescence microscope. Three randomly selected areas from each transwell were photographed and calculated using Image J.

A549 cells = assay: CCK-8 assay, A549 cells; assay type: cell-based; conditions: Homo sapiens, A549; CCK-8, 48 h, mean ± SD, n = 3
Procedure: as §2

[3] = tested on: Bcl-2/caspase3/PARP signaling pathway; assay: Western blot, apoptosis proteins in H1299 cells; assay type: cell-based, human; conditions: H1299, 4, 8 and 16 μM, 48 h
Procedure: as §3

H1299 cells [4] = assay: Annexin V-EGFP/PI flow cytometry for cell apoptosis; assay type: cell-based, human; conditions: 48 h
Procedure: H1299 cells were seeded in a 6-well plate at a density of 1 × 10^5 cells/well and incubated for 24 h. The following day, the medium was replaced with fresh medium containing 4b or 4c (2, 4 and 8 μM) and cells were incubated for an additional 48 h. Cell apoptosis was detected using Annexin V-EGFP/PI apoptosis detection kit (Beyotime Biotechnology, Shanghai, China) by flow cytometry. Subsequently, 5 μL of […] Annexin V and 10 μL of PI was added to the cell suspension, gently vortexed and incubated at room temperature in the dark for 20 min. Then, single-cell suspension was prepared followed by flow cytometry (BD Accuri™ C6 Plus, BD Biosciences, Franklin Lake, NJ, USA).

H1299 cells [5] = assay: Wound healing (cell scratch) assay; assay type: cell-based, human; conditions: 24 h
Procedure: H1299 cells were seeded in a 6-well plate. When the cell confluency reached 95%, a wound line was scratched using a 200 μl pipette tip and then washed three times. Then, fresh medium containing 4b or 4c (2, 4 and 8 μM) was added and the plate was incubated at 37 °C with 5% CO2. All images were captured at 0 h and 24 h under an inverted microscope, and the quantification of scratches was analyzed using Image J (https://imagej.net/ij/, accessed on 4 January 2024).

H1299 cells [6] = assay: Colony formation assay; assay type: cell-based, human; conditions: seven days
Procedure: H1299 cells were seeded in six-well plates at a density of 500 cells per well and treated with 4b or 4c (1, 2 and 4 μM) for seven days. Then, cells were per-fixed with 4% paraformaldehyde for 30 min, stained with 0.1% crystal violet for 15 min and then washed with pure water. After destain with water, the plates were allowed to dry at room temperature overnight. Image J was used to count the number of clone formations.

lung cancer cells = assay: CCK-8 assay, lung cancer cells (line not specified); assay type: cell-based; conditions: read-out: inhibition rate on lung cancer cells
Procedure: as §1

| SMILES | nuclear morphology (DAPI staining) (H1299 cells [1]) | inhibition at 2 µM (L02 cells) | inhibition at 4 µM (L02 cells) | inhibition at 8 µM (L02 cells) | inhibition at 16 µM (L02 cells) | inhibition at 32 µM (L02 cells) | IC50 (L02 cells) | IC50 (NCI-H1437 cells) | MMP9 protein expression (MMP9) | IC50 (NCI-H1299 cells) | number of cells crossing the microporous membrane (H1299 cells [2]) | IC50 (A549 cells) | expression level of Bcl-2 protein [3] | expression level of PARP protein [3] | expression level of caspase 3 protein [3] | expression level of caspase 9 protein [3] | expression level of cleaved PARP protein [3] | expression level of cleaved caspase 3 protein [3] | total apoptotic cell proportion (H1299 cells [4]; H1299, 2 μM) | total apoptotic cell proportion (H1299 cells [4]; H1299, 4 μM) | other results |
| --- | --- | --- | --- | --- | --- | --- | --- | --- | --- | --- | --- | --- | --- | --- | --- | --- | --- | --- | --- | --- | --- |
| COc1cc2ncnc(Nc3cccc(-c4cn(Cc5cccc(F)c5)nn4)c3)c2cc1OCCCN1CCOCC1 [Compound 4c, N-(3-(1-(3-Fluorobenzyl)-1H-1,2,3-triazol-4-yl)phenyl)-7-methoxy-6-(3-morpholinopropoxy)quinazolin-4-amine] | typical apoptotic features | 7.18 ± 1.22% | < 20% | 27.6 ± 2.79% | 30.6 ± 1.93% | 56.1 ± 5.77% | 29.4 ± 5.53 µM | 3.51 ± 0.05 µM | decrease in MMP9 protein expression | 4.6 ± 0.18 µM | significant reduction | 4 ± 0.08 µM | concentration-dependent decrease | concentration-dependent decrease | concentration-dependent decrease | concentration-dependent decrease | increased | increased | 16.37 ± 0.57% | 31.2 ± 2.36% | total apoptotic cell proportion (H1299 cells [4]; H1299, 8 μM): 51.77 ± 6.74%; migration closure rate (H1299 cells [5]; H1299, 2 μM): 53.26 ± 4.51%; migration closure rate (H1299 cells [5]; H1299, 4 μM): 40.04 ± 8.02%; migration closure rate (H1299 cells [5]; H1299, 8 μM): 17.90 ± 3.46%; melting point: 202 to 203 °C; formation of H1299 cell colonies (H1299 cells [6]; 1 μM): significantly inhibit; formation of H1299 cell colonies (H1299 cells [6]; 4 μM): almost completely inhibited; inhibition at 4 µM (lung cancer cells): 50% |
| COc1cc2ncnc(Nc3cccc(-c4cn(Cc5ccccc5Br)nn4)c3)c2cc1OCCCN1CCOCC1 [Compound 4b, N-(3-(1-(2-Bromobenzyl)-1H-1,2,3-triazol-4-yl)phenyl)-7-methoxy-6-(3-morpholinopropoxy)quinazolin-4-amine] | typical apoptotic features | 9.09 ± 1% | < 20% | 29.8 ± 1.27% | 39.1 ± 2.18% | 64.8 ± 1.84% | 20.2 ± 1.26 µM | 1.56 ± 0.06 µM | decrease in MMP9 protein expression | 4.42 ± 0.24 µM | significant reduction | 3.94 ± 0.01 µM | concentration-dependent decrease | concentration-dependent decrease | concentration-dependent decrease | concentration-dependent decrease | increased | increased | 20.43 ± 1.72% | 43.2 ± 2.4% | total apoptotic cell proportion (H1299 cells [4]; H1299, 8 μM): 77.4 ± 3.97%; migration closure rate (H1299 cells [5]; H1299, 2 μM): 72.59 ± 2.12%; migration closure rate (H1299 cells [5]; H1299, 4 μM): 62.42 ± 5.50%; migration closure rate (H1299 cells [5]; H1299, 8 μM): 49.79 ± 2.22%; melting point: 165 to 166 °C; formation of H1299 cell colonies (H1299 cells [6]; 1 μM): significantly inhibit; formation of H1299 cell colonies (H1299 cells [6]; 4 μM): almost completely inhibited; inhibition at 4 µM (lung cancer cells): 50% |
